# Columns and labels:
# Type in all cases: cell-based, Human
# [1] = test system: LS patient cells; experiment: Cell spreading assay after a predetermined time-point (cell area)
# Description: Two approaches to monitor cell spreading were used: after a predetermined time-point and at multiple time points.
# 1) Spreading after a Predetermined Time-Point.
# (§1) Human dermal fibroblasts (12 h after seeding) were treated with the indicated drug (or vehicle) in 0.1% serum for the indicated time. After drug treatment, the cells were lifted with 20 mM EDTA (ethylenediaminetetraacetic acid) in PBS (phosphate-buffered saline), pelleted at 300×g for 5 min and resuspended in 1% serum in the presence of drug or vehicle. Cell suspensions were then set in a rotator for 1 hour before seeding them on fibronectin-coated coverslips for 30 min, undisturbed, to allow attachment and spreading. After spreading, coverslips were gently rinsed with PBS and fixed in 4% formaldehyde for 10 min at room temperature. Cells were stained with rhodamine—phalloidin and imaged by epifluorescence microscopy. At least 50 cells were quantified per experiment by tracing and measuring cell areas by using the magic wand tool in ImageJ software (National Institutes of Health (NIH), Bethesda, MD, USA).
# (§2) Cell spreading on fibronectin-coated surfaces of cells treated with RhoA modulators in comparison to untreated cells was observed. Cells were fixed and stained with fluorescently labeled-phalloidin after 30 min spreading time at 37° C. Following imaging, cell area measurements were performed.
# [2] = test system: Focal Adhesion Kinase (FAK); experiment: Focal adhesion immunofluorescence (phospho-FAK), confocal microscopy; conditions: LS cells
# Description: Cells were prepared as described under “Spreading after a pre-determined time point.” After fixation, indirect immunofluorescence was performed using antibodies against phospho-FAK (Y397) or vinculin. Briefly, cells were gently washed with PBS, fixed with 4% formaldehyde-PBS for 10 min and permeabilized using 0.25% Triton-X 100 in PBS for 20 min, followed by blocking with 5% BSA (bovine serum albumin) in PBS for 30 min. Cells were also immuno-stained with Phalloidin-FITC and DAPI to label the actin cytoskeleton and nucleus, respectively. Images were acquired at the Indiana O'Brien Center for Biological Microscopy (ICBM; Division of Nephrology, Indiana University School of Medicine, Indianapolis, IN, USA) using an Olympus IX81 inverted confocal microscope. A 60× Oil objective (NA 1.42) was used and randomly selected fields were imaged using constant voltage, gain and intensity for the different groups, as well as uniform step size (0.19 μm) using sequential image collection mode.
# [3] = test system: Normal fibroblasts; experiment: Cell spreading assay after a predetermined time-point (cell area); conditions: 30 min after seeding on fibronectin
# Description: as §1, §2
# [4] = test system: LS patient cells; experiment: Spreading at multiple time points (spreading score, time-lapse); conditions: LS patient cells treated with rosuvastatin; non-linear regression of FIG. 4 data
# Description: (§3) Human dermal fibroblasts were treated as described above, seeded on fibronectin-coated LabTek chambers, and allowed to attach and spread. Cells were imaged at intervals of 10 min after seeding for 8 h using 20× objective in a Zeiss Axiovert inverted microscope. Number of detaching cells was quantified every 10 min up to the first hour by using the cell counter tool in ImageJ (NIH). To determine spreading kinetics, individual cells were tracked in each time lapse image and were scored from 1-5 based on general cell morphology. Briefly, cells that were just attached and looked circular with no protrusions or visible extensions received a score of 1. Cells with needle-like (filopodia) projections were scored 2, cells with lamellopodia-like extensions were scored 3, cells with more extended lamellopodia-like extensions and increased cell area were given a score of 4, and a further increase in cell area, often accompanied by isotropic spread morphology, was given a score of 5.
# A von Bertalanffy logistic model was adopted to fit the data presented in FIG. 3A (adhesion) and FIG. 4 (spreading) as shown in Table 3. […] The associated error ΔK was estimated using standard rules of error propagation based on the determined T0.5 error (ΔT0.5), according to ΔK=K(ΔT0.5/T0.5).
# [5] = test system: normal cells; experiment: Ciliogenesis assay
# Description: Cells were seeded on glass cover slips and grown for 24 h in complete media. Then media was replaced by 0.1% serum DMEM (starvation media) containing vehicle or the drug to induce ciliogenesis for the indicated times. Cells were then fixed in 4% formaldehyde—PBS for 10 min and immuno-labeled with anti-acetylated tubulin antibody (see Table 2). At least 50 cells were imaged for every experiment and experiments were repeated at least thrice. The fraction of cells displaying cilia and cilia length were determined as described previously (Coon et al. (2012), supra).
# [6] = test system: LS patient cells; experiment: Cell adhesion by time-lapse microscopy
# Description: as §3
# Alternatively, cells were treated as described above and allowed to attach on fibronectin-coated dishes. Immediately after seeding, the cells were imaged with a 10× objective simultaneously using up to 3 Cytosmart Imaging Systems (Lonza, Basel, Switzerland) at intervals of 30 s for 2 h. Number of cells attached was quantified every 10 min up to the first hour using the Cell Counter tool in ImageJ software (NIH). […]
# [7] = test system: HMG-CoA reductase in LS cells; experiment: Cholesterol uptake assay; conditions: LS patient fibroblasts in Cho-free media
# Description: Assay for cholesterol uptake was performed using cholesterol-free media and an AbCam kit (ab236212; Cambridge, UK) according to manufacturer's instructions.
# [8] = test system: Rac1; experiment: Rac1 FRET biosensor assay; conditions: LS cells, FRET-based biosensor
# Description: FIG. 9. […] LS patient cells expressing Rac1 FRET probe were treated with vehicle or rosuvastatin, imaged and FRET signals analyzed by the ratiometric method (*p<0.05, Wilcoxon test).
# [9] = test system: LS patient cells; experiment: Viability/toxicity assessment (cell counting, morphology, MTT)
# Description: Cells were incubated with the indicated drugs for the specified times at different concentrations as described in low serum (0.1%) media to avoid substantial protein-mediated drug sequestration. In addition to cell counting post-treatment, a sample of cells seeded on fibronectin-coated coverslips was fixed and stained with fluorescein isothiocyanate (FITC)-phalloidin and DAPI (4′,6-diamidino-2-phenylindole) for cell morphology inspection. Viability was monitored by performing MTT (3-(4,5-dimethylthiazol-2-yl)-2,5-diphenyltetrazolium bromide) assays as follows: Following treatment of cells (in triplicates) with indicated drugs at different concentrations for specified times, media were aspirated and replaced with MTT solution (freshly prepared at 0.5 mg/ml in complete media) and incubated for 1.5 h. Additionally, a blank control with only MTT reagent containing no cells was also prepared. Following incubation, solution was aspirated and MTT was immediately solubilized using 1 mL DMSO (dimethylsulfoxide) (per well) by gentle pipetting. Absorbance values of solubilized MTT solution from the different wells were measured at 570 nm using a spectrophotometer.
structure (smiles),measurement,setting,value
CC(C)c1nc(N(C)S(C)(=O)=O)nc(-c2ccc(F)cc2)c1/C=C/[C@@H](O)C[C@@H](O)CC(=O)O [rosuvastatin],"LS spreading phenotype alleviation, acute dose",[1]; 100 μM for 1 h,Phenotype alleviation was observed
same,cell spreading / membrane remodeling phenotype in cells from another LS patient,"[1]; LS2 cells, FIG. 8A",ameliorated
same,LS cell spreading phenotype,"[1]; LS patient fibroblasts, 30 min after seeding on fibronectin",mitigated to a certain extent the LS spreading phenotype
same,ranking of statins: rescue effect over needed dose and toxicity,[1]; LS spreading defects,produced the best results
same,peripherally activated FAK (phospho-Tyr397) abnormality,[2],alleviated
same,cell spreading of normal cells,[3],No obvious effect
same,"Spreading, Process Continuous Rate",[4],24 ± 2 min^−1 × 10^3
same,ciliogenesis by normal cells,[5],No obvious effect
same,LS cell adhesion defect,[6]; LS cells on fibronectin-coated surfaces,alleviated the LS cell adhesion defect
same,"Adhesion, Process Continuous Rate","[6]; LS patient cells treated with rosuvastatin, fibronectin-coated surfaces, non-linear regression of FIG. 3A data",35 ± 5 min^−1 × 10^3
same,uptake of fluorescently labeled Cho (inhibition of cholesterol biosynthesis),[7],less acute inhibition of cholesterol biosynthesis
same,Rac1 activation levels,[8],raised
same,"toxicity, chronic exposure",[9]; 10 μM for ≥72 h,relatively innocuous
same,"toxicity, acute dose","[9]; 100 μM, exposure time≥15 h",induced toxicity
same,toxicity (viability and stress-induced changes in morphology),[9]; LS cells after exposure to statins,minimal toxicity

# From patent publication US12310964B2, “Compositions and methods for the treatment of Lowe Syndrome” (Purdue Research Foundation, priority 2020, dated 2025)
